In patent US20240270740A1, “INHIBITORS OF CYCLIC GMP-AMP SYNTHASE AND USES THEREOF” (Ventus Therapeutics U.S., Inc., priority 2022, published 2024):

Target: hcGAS (Homo sapiens, UniProt Q8N884)
Assay: hcGAS LCMS assay (direct measurement of cGAMP production)
Type: biochemical
Details: 0.5 nM hcGAS, 100 μM ATP, 100 μM GTP, 25 nM dsDNA, 4 h incubation
How it was run: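 Direct LC/MS readout of cGAMP formed: 4-h enzyme–substrate incubation with compound, stopped by acetonitrile/water quench carrying isotope-labelled cGAMP (0.15 mM) as standard. Potency reported as IC50 ranges.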

Chain of hcGAS (Q8N884 whole entry): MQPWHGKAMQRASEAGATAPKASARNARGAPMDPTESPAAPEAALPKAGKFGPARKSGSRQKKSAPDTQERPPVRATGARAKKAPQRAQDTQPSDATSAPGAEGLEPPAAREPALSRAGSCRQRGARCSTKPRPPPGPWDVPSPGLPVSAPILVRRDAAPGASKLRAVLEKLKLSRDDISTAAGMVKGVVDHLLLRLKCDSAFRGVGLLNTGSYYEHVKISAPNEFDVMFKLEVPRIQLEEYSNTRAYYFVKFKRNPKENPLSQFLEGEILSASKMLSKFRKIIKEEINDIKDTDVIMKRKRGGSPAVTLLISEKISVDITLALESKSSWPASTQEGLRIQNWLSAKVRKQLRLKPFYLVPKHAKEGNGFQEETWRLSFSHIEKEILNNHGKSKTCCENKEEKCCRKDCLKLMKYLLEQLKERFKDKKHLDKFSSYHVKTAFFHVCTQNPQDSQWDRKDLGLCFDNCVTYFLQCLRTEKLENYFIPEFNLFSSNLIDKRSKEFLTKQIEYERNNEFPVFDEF

IC50 [nM]	Compound
5 to 20	COc1c(N[C@H]2CCCC[C@H]2OC)cc(C(=O)Nc2nnc(-n3nccc3C)s2)oc1=O [Compound 27, 3-methoxy-4-(((1S,2R)-2-methoxycyclohexyl)amino)-N-(5-(5-methyl-1H-pyrazol-1-yl)-1,3,4-thiadiazol-2-yl)-2-oxo-2H-pyran-6-carboxamide]
60 to 200	COc1c(N(CCO)CCO)cc(C(=O)Nc2nnc(-n3nccc3C)s2)oc1=O (single isomer, unassigned) [Compound 158, 4-(bis(2-hydroxyethyl)amino)-3-methoxy-N-(5-(5-methyl-1H-pyrazol-1-yl)-1,3,4-thiadiazol-2-yl)-2-oxo-2H-pyran-6-carboxamide]
5 to 20	COc1c(N[C@@H]2COC[C@H]2OC)cc(C(=O)Nc2nnc(-n3nccc3C)s2)oc1=O [Compound 102, 3-methoxy-4-(((3R,4S)-4-methoxytetrahydrofuran-3-yl)amino)-N-(5-(5-methyl-1H-pyrazol-1-yl)-1,3,4-thiadiazol-2-yl)-2-oxo-2H-pyran-6-carboxamide]
< 5	COC[C@H](C1CC1)N1CCOc2c1cc(C(=O)Nc1nnc(-n3nccc3C)s1)oc2=O [Compound 226, (S)-1-(1-cyclopropyl-2-methoxyethyl)-N-(5-(5-methyl-1H-pyrazol-1-yl)-1,3,4-thiadiazol-2-yl)-5-oxo-1,2,3,5-tetrahydropyrano[3,4-b][1,4]oxazine-7-carboxamide]
< 5	Cc1ccnn1-c1nnc(NC(=O)c2cc3c(c(=O)o2)OCCN3[C@H]2CCC[C@H]2C#N)s1 [Compound 224, 1-((1S,2R)-2-cyanocyclopentyl)-N-(5-(5-methyl-1H-pyrazol-1-yl)-1,3,4-thiadiazol-2-yl)-5-oxo-1,2,3,5-tetrahydropyrano[3,4-b][1,4]oxazine-7-carboxamide]
≥ 200	COc1c(N[C@@H]2Cc3ccccc3[C@@H]2O)cc(C(=O)Nc2nnc(-n3nccc3C)s2)oc1=O (racemic) [Rac-81, 4-(((1S,2R)-1-hydroxy-2,3-dihydro-1H-inden-2-yl)amino)-3-methoxy-N-(5-(5-methyl-1H-pyrazol-1-yl)-1,3,4-thiadiazol-2-yl)-2-oxo-2H-pyran-6-carboxamide]
20 to 60	COc1c(NC23CC(C2)C3)cc(C(=O)Nc2nnc(-n3nccc3N)s2)oc1=O [Compound 178, N-(5-(5-amino-1H-pyrazol-1-yl)-1,3,4-thiadiazol-2-yl)-4-(bicyclo[1.1.1]pentan-1-ylamino)-3-methoxy-2-oxo-2H-pyran-6-carboxamide]
5 to 20	COc1c(N(C)[C@@H]2CCC[C@@H]2O)cc(C(=O)Nc2nnc(-n3nccc3C)s2)oc1=O (racemic) [Rac-159, 4-(((cis)-2-hydroxycyclopentyl)(methyl)amino)-3-methoxy-N-(5-(5-methyl-1H-pyrazol-1-yl)-1,3,4-thiadiazol-2-yl)-2-oxo-2H-pyran-6-carboxamide]
< 5	COc1c(N[C@H](C)[C@H](C)OC)cc(C(=O)Nc2nnc(-n3nccc3C)s2)oc1=O [Compound 166, 3-methoxy-4-(((2R,3S)-3-methoxybutan-2-yl)amino)-N-(5-(5-methyl-1H-pyrazol-1-yl)-1,3,4-thiadiazol-2-yl)-2-oxo-2H-pyran-6-carboxamide]
5 to 20	COc1c(N[C@H]2CCC[C@H]2OCC(F)F)cc(C(=O)Nc2nnc(-n3nccc3C)s2)oc1=O [Compound 206, 4-(((1S,2R)-2-(2,2-difluoroethoxy)cyclopentyl)amino)-3-methoxy-N-(5-(5-methyl-1H-pyrazol-1-yl)-1,3,4-thiadiazol-2-yl)-2-oxo-2H-pyran-6-carboxamide]
5 to 20	COc1c(N[C@H]2CC[C@@H](OC)C2)cc(C(=O)Nc2nnc(-n3nccc3C)s2)oc1=O (single isomer, unassigned) [124*]
5 to 20	COc1c(N[C@@H]2c3ccccc3C[C@@H]2OC)cc(C(=O)Nc2nnc(-n3nccc3C)s2)oc1=O (racemic) [Rac-164, 3-methoxy-4-(((1R,2S)-2-methoxy-2,3-dihydro-1H-inden-1-yl)amino)-N-(5-(5-methyl-1H-pyrazol-1-yl)-1,3,4-thiadiazol-2-yl)-2-oxo-2H-pyran-6-carboxamide]
5 to 20	COc1c(N[C@@H]2CC[C@@H]2OC)cc(C(=O)Nc2nnc(-c3c(Cl)ccn3C)s2)oc1=O (single isomer, unassigned) [Compound 132*]
20 to 60	COCC(COC)Nc1cc(C(=O)Nc2nnc(-n3nccc3CO)s2)oc(=O)c1OC [Compound 143, 4-((1,3-dimethoxypropan-2-yl)amino)-N-(5-(5-(hydroxymethyl)-1H-pyrazol-1-yl)-1,3,4-thiadiazol-2-yl)-3-methoxy-2-oxo-2H-pyran-6-carboxamide]
5 to 20	COc1c(NCCOC(F)F)cc(C(=O)Nc2nnc(-n3nccc3C)s2)oc1=O [Compound 208, 4-((2-(difluoromethoxy)ethyl)amino)-3-methoxy-N-(5-(5-methyl-1H-pyrazol-1-yl)-1,3,4-thiadiazol-2-yl)-2-oxo-2H-pyran-6-carboxamide]
5 to 20	COc1c(N[C@H]2CC[C@H]2OC)cc(C(=O)Nc2nnc(-n3nccc3C)s2)oc1=O (single isomer, unassigned) [123*]

IC50 [nM]	Compound
5 to 20	COc1c(N[C@H]2CC[C@H]2OC)cc(C(=O)Nc2nnc(-c3c(Cl)ccn3C)s2)oc1=O (single isomer, unassigned) [Compound 133*]
5 to 20	COc1c(N[C@@H]2CCN(C)C2=O)cc(C(=O)Nc2nnc(-n3nccc3C)s2)oc1=O (single isomer, unassigned) [72*]
< 5	COCCOc1c(N[C@@H](COC)c2ccccc2)cc(C(=O)Nc2nnc(-c3c(Cl)ccn3C)s2)oc1=O [Compound 201, (R)—N-(5-(3-chloro-1-methyl-1H-pyrrol-2-yl)-1,3,4-thiadiazol-2-yl)-4-((2-methoxy-1-phenylethyl)amino)-3-(2-methoxyethoxy)-2-oxo-2H-pyran-6-carboxamide]
5 to 20	COC[C@H]1CC[C@H](COC)N1c1cc(C(=O)Nc2nnc(-n3nccc3C)s2)oc(=O)c1OC (racemic) [Rac-209, 4-((trans)-2,5-bis(methoxymethyl)pyrrolidin-1-yl)-3-methoxy-N-(5-(5-methyl-1H-pyrazol-1-yl)-1,3,4-thiadiazol-2-yl)-2-oxo-2H-pyran-6-carboxamide]
5 to 20	COc1c(NC23COC(C2)C3)cc(C(=O)Nc2nnc(-n3nccc3C)s2)oc1=O [Compound 51, 4-((2-oxabicyclo[2.1.1]hexan-4-yl)amino)-3-methoxy-N-(5-(5-methyl-1H-pyrazol-1-yl)-1,3,4-thiadiazol-2-yl)-2-oxo-2H-pyran-6-carboxamide]
5 to 20	COc1c(NC2COC(C)(C)OC2)cc(C(=O)Nc2nnc(-n3nccc3C)s2)oc1=O [Compound 195, 4-((2,2-dimethyl-1,3-dioxan-5-yl)amino)-3-methoxy-N-(5-(5-methyl-1H-pyrazol-1-yl)-1,3,4-thiadiazol-2-yl)-2-oxo-2H-pyran-6-carboxamide]
5 to 20	COc1c(N[C@H]2CC[C@H]2OCC(F)F)cc(C(=O)Nc2nnc(-n3nccc3C)s2)oc1=O (single isomer, unassigned) [172*]
20 to 60	COc1c(N[C@@H]2CC[C@@H]2OCC(F)F)cc(C(=O)Nc2nnc(-n3nccc3C)s2)oc1=O (single isomer, unassigned) [173*]
5 to 20	COC[C@@H](Nc1cc(C(=O)Nc2nnc(-n3nccc3C)s2)oc(=O)c1OC)C(C)C [Compound 77, (S)-3-methoxy-4-((1-methoxy-3-methylbutan-2-yl)amino)-N-(5-(5-methyl-1H-pyrazol-1-yl)-1,3,4-thiadiazol-2-yl)-2-oxo-2H-pyran-6-carboxamide]
5 to 20	COc1c(N[C@H]2CCN(C)C2=O)cc(C(=O)Nc2nnc(-n3nccc3C)s2)oc1=O (single isomer, unassigned) [71*]
20 to 60	COCCNc1cc(C(=O)Nc2nnc(-c3ccsc3Cl)s2)oc(=O)c1OC [Compound 135, N-(5-(2-chlorothiophen-3-yl)-1,3,4-thiadiazol-2-yl)-3-methoxy-4-((2-methoxyethyl)amino)-2-oxo-2H-pyran-6-carboxamide]
≥ 200	COc1c(N[C@@H]2c3ccccc3C[C@@H]2O)cc(C(=O)Nc2nnc(-n3nccc3C)s2)oc1=O (racemic) [Rac-28, 4-(((cis)-2-hydroxy-2,3-dihydro-1H-inden-1-yl)amino)-3-methoxy-N-(5-(5-methyl-1H-pyrazol-1-yl)-1,3,4-thiadiazol-2-yl)-2-oxo-2H-pyran-6-carboxamide]
5 to 20	COCC(C)(C)COc1c(NC23CC(C2)C3)cc(C(=O)Nc2nnc(-n3nccc3C)s2)oc1=O [Compound 149, 4-(bicyclo[1,1,1]pentan-1-ylamino)-(3-methoxy-2,2-dimethylpropoxy)-N-(5-(5-methyl-1H-pyrazol-1-yl)-1,3,4-thiadiazol-2-yl)-2-oxo-2H-pyran-6-carboxamide]
5 to 20	COCC1(Nc2cc(C(=O)Nc3nnc(-n4nccc4C)s3)oc(=O)c2OC)CC1 [Compound 97, 3-methoxy-4-((1-(methoxymethyl)cyclopropyl)amino)-N-(5-(5-methyl-1H-pyrazol-1-yl)-1,3,4-thiadiazol-2-yl)-2-oxo-2H-pyran-6-carboxamide]
5 to 20	COc1c(N[C@H]2CCC[C@H]2OC(F)F)cc(C(=O)Nc2nnc(-n3nccc3C)s2)oc1=O [Compound 212, 4-(((1S,2R)-2-(difluoromethoxy)cyclopentyl)amino)-3-methoxy-N-(5-(5-methyl-1H-pyrazol-1-yl)-1,3,4-thiadiazol-2-yl)-2-oxo-2H-pyran-6-carboxamide]
